Measurements published in the NIST ThermoML archive (doi:10.1016/j.jct.2013.07.008).

Columns and labels:
[1] = refractive index (Na D-line) (dimensionless); wn = mass fraction of the nth substance listed; settings: 101 kPa, Liquid, Standard Abbe refractometry
[2] = wn = mass fraction of the nth substance listed; settings: for surface tension liquid-gas: Maximal bubble pressure; for mass density: 101 kPa, Liquid, Buoyancy - hydrostatic balance

CC(O)C(=O)[O-].CCn1cc[n+](C)c1 [1-ethyl-3-methylimidazolium lactate] + O
Settings | mass density, [2] [kg/m3] | refractive index, [1] | surface tension liquid-gas, [2] [mN/m]
288.15 K, w2 = 0.0082 | 1197.3 | 1.5019 | 50.1
288.15 K, w2 = 0.0104 | 1198.4 | 1.5017 | 50.3
288.15 K, w2 = 0.0121 | 1199.4 | 1.5016 | 50.4
288.15 K, w2 = 0.0158 | 1201.3 | 1.5013 | 50.7
288.15 K, w2 = 0.0205 | 1203.8 | 1.5009 | 51
293.15 K, w2 = 0.0082 | 1194.1 | 1.5006 | 49.8
293.15 K, w2 = 0.0104 | 1195.2 | 1.5004 | 50
293.15 K, w2 = 0.0121 | 1196.1 | 1.5002 | 50.1
293.15 K, w2 = 0.0158 | 1198.1 | 1.4999 | 50.4
293.15 K, w2 = 0.0205 | 1200.5 | 1.4994 | 50.7
303.15 K, w2 = 0.0082 | 1187.6 | 1.498 | 49.1
303.15 K, w2 = 0.0104 | 1188.8 | 1.4978 | 49.3
303.15 K, w2 = 0.0121 | 1189.7 | 1.4977 | 49.4
303.15 K, w2 = 0.0158 | 1191.5 | 1.4974 | 49.7
303.15 K, w2 = 0.0205 | 1194 | 1.497 | 50.1
308.15 K, w2 = 0.0082 | 1184.3 | 1.4969 | 48.7
308.15 K, w2 = 0.0104 | 1185.5 | 1.4967 | 48.9
308.15 K, w2 = 0.0121 | 1186.4 | 1.4965 | 49
308.15 K, w2 = 0.0158 | 1188.3 | 1.4962 | 49.3
308.15 K, w2 = 0.0205 | 1190.7 | 1.4957 | 49.7
313.15 K, w2 = 0.0082 | 1180.9 | 1.4955 | 48.4
313.15 K, w2 = 0.0104 | 1182 | 1.4953 | 48.6
313.15 K, w2 = 0.0121 | 1182.9 | 1.4952 | 48.7
313.15 K, w2 = 0.0158 | 1184.9 | 1.4949 | 49
313.15 K, w2 = 0.0205 | 1187.5 | 1.4946 | 49.4
318.15 K, w2 = 0.0082 | 1177.6 | 1.4943 | 48.1
318.15 K, w2 = 0.0104 | 1178.8 | 1.4941 | 48.3
318.15 K, w2 = 0.0121 | 1179.7 | 1.494 | 48.4
318.15 K, w2 = 0.0158 | 1181.5 | 1.4937 | 48.7
318.15 K, w2 = 0.0205 | 1184 | 1.4933 | 49.1
323.15 K, w2 = 0.0082 | 1174.5 | 1.4931 | 47.7
323.15 K, w2 = 0.0104 | 1175.6 | 1.493 | 47.9
323.15 K, w2 = 0.0121 | 1176.4 | 1.4929 | 48
323.15 K, w2 = 0.0158 | 1178.2 | 1.4927 | 48.3
323.15 K, w2 = 0.0205 | 1180.6 | 1.4924 | 48.7
328.15 K, w2 = 0.0082 | 1171.3 | 1.4919 | 47.3
328.15 K, w2 = 0.0104 | 1172.5 | 1.4917 | 47.5
328.15 K, w2 = 0.0121 | 1173.4 | 1.4915 | 47.6
328.15 K, w2 = 0.0158 | 1175.3 | 1.4912 | 47.9
328.15 K, w2 = 0.0205 | 1177.7 | 1.4908 | 48.3
333.15 K, w2 = 0.0082 | 1168 | 1.4906 | 47
333.15 K, w2 = 0.0104 | 1169.1 | 1.4904 | 47.2
333.15 K, w2 = 0.0121 | 1170 | 1.4903 | 47.3
333.15 K, w2 = 0.0158 | 1172 | 1.49 | 47.6
333.15 K, w2 = 0.0205 | 1174.5 | 1.4896 | 48

CC(O)C(=O)[O-].CCCCCn1cc[n+](C)c1 [1-pentyl-3-methylimidazolium lactate] + O
Settings | mass density, [2] [kg/m3] | refractive index, [1] | surface tension liquid-gas, [2] [mN/m]
288.15 K, w2 = 0.0081 | – | 1.4933 | –
288.15 K, w2 = 0.0086 | 1116.6 | – | 43.7
288.15 K, w2 = 0.0102 | – | 1.4931 | –
288.15 K, w2 = 0.0106 | 1117.4 | – | 43.8
288.15 K, w2 = 0.0129 | 1118.6 | 1.4929 | 44
288.15 K, w2 = 0.0153 | – | 1.4927 | –
288.15 K, w2 = 0.0163 | 1120.3 | – | 44.3
288.15 K, w2 = 0.0199 | – | 1.4923 | –
288.15 K, w2 = 0.021 | 1122.4 | – | 44.6
293.15 K, w2 = 0.0081 | – | 1.492 | –
293.15 K, w2 = 0.0086 | 1113.1 | – | 43.3
293.15 K, w2 = 0.0102 | – | 1.4918 | –
293.15 K, w2 = 0.0106 | 1113.9 | – | 43.4
293.15 K, w2 = 0.0129 | 1115.2 | 1.4916 | 43.6
293.15 K, w2 = 0.0153 | – | 1.4913 | –
293.15 K, w2 = 0.0163 | 1116.8 | – | 43.9
293.15 K, w2 = 0.0199 | – | 1.4909 | –
293.15 K, w2 = 0.021 | 1119 | – | 44.2
303.15 K, w2 = 0.0081 | – | 1.4894 | –
303.15 K, w2 = 0.0086 | 1106.8 | – | 42.6
303.15 K, w2 = 0.0102 | – | 1.4892 | –
303.15 K, w2 = 0.0106 | 1107.6 | – | 42.7
303.15 K, w2 = 0.0129 | 1108.8 | 1.489 | 42.9
303.15 K, w2 = 0.0153 | – | 1.4888 | –
303.15 K, w2 = 0.0163 | 1110.5 | – | 43.2
303.15 K, w2 = 0.0199 | – | 1.4884 | –
303.15 K, w2 = 0.021 | 1112.7 | – | 43.5
308.15 K, w2 = 0.0081 | – | 1.4883 | –
308.15 K, w2 = 0.0086 | 1103.6 | – | 42.2
308.15 K, w2 = 0.0102 | – | 1.4881 | –
308.15 K, w2 = 0.0106 | 1104.3 | – | 42.3
308.15 K, w2 = 0.0129 | 1105.6 | 1.4879 | 42.5
308.15 K, w2 = 0.0153 | – | 1.4876 | –
308.15 K, w2 = 0.0163 | 1107.3 | – | 42.8
308.15 K, w2 = 0.0199 | – | 1.4872 | –
308.15 K, w2 = 0.021 | 1109.5 | – | 43.2
313.15 K, w2 = 0.0081 | – | 1.4869 | –
313.15 K, w2 = 0.0086 | 1099.9 | – | 41.9
313.15 K, w2 = 0.0102 | – | 1.4867 | –
313.15 K, w2 = 0.0106 | 1100.7 | – | 42
313.15 K, w2 = 0.0129 | 1102.1 | 1.4865 | 42.2
313.15 K, w2 = 0.0153 | – | 1.4863 | –
313.15 K, w2 = 0.0163 | 1104 | – | 42.5
313.15 K, w2 = 0.0199 | – | 1.486 | –
313.15 K, w2 = 0.021 | 1106.4 | – | 42.9
318.15 K, w2 = 0.0081 | – | 1.4857 | –
318.15 K, w2 = 0.0086 | 1097.1 | – | 41.6
318.15 K, w2 = 0.0102 | – | 1.4855 | –
318.15 K, w2 = 0.0106 | 1097.8 | – | 41.8
318.15 K, w2 = 0.0129 | 1099.1 | 1.4853 | 41.9
318.15 K, w2 = 0.0153 | – | 1.4851 | –
318.15 K, w2 = 0.0163 | 1100.8 | – | 42.2
318.15 K, w2 = 0.0199 | – | 1.4847 | –
318.15 K, w2 = 0.021 | 1103 | – | 42.6
323.15 K, w2 = 0.0081 | – | 1.4845 | –
323.15 K, w2 = 0.0086 | 1093.9 | – | 41.2
323.15 K, w2 = 0.0102 | – | 1.4844 | –
323.15 K, w2 = 0.0106 | 1094.6 | – | 41.4
323.15 K, w2 = 0.0129 | 1095.8 | 1.4842 | 41.5
323.15 K, w2 = 0.0153 | – | 1.4841 | –
323.15 K, w2 = 0.0163 | 1097.5 | – | 41.8
323.15 K, w2 = 0.0199 | – | 1.4838 | –
323.15 K, w2 = 0.021 | 1099.6 | – | 42.2
328.15 K, w2 = 0.0081 | – | 1.4833 | –
328.15 K, w2 = 0.0086 | 1090.5 | – | 40.8
328.15 K, w2 = 0.0102 | – | 1.4831 | –
328.15 K, w2 = 0.0106 | 1091.2 | – | 41
328.15 K, w2 = 0.0129 | 1092.5 | 1.4829 | 41.1
328.15 K, w2 = 0.0153 | – | 1.4826 | –
328.15 K, w2 = 0.0163 | 1094.1 | – | 41.4
328.15 K, w2 = 0.0199 | – | 1.4822 | –
328.15 K, w2 = 0.021 | 1096.4 | – | 41.8
333.15 K, w2 = 0.0081 | – | 1.482 | –
333.15 K, w2 = 0.0086 | 1087.4 | – | 40.5
333.15 K, w2 = 0.0102 | – | 1.4818 | –
333.15 K, w2 = 0.0106 | 1088.1 | – | 40.7
333.15 K, w2 = 0.0129 | 1089.3 | 1.4816 | 40.8
333.15 K, w2 = 0.0153 | – | 1.4814 | –
333.15 K, w2 = 0.0163 | 1091 | – | 41.1
333.15 K, w2 = 0.0199 | – | 1.481 | –
333.15 K, w2 = 0.021 | 1093.2 | – | 41.5
